“And” between values parts separate entries of the source, which are not always exact repeats. Equal values may be shown once.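 Each compound was tested at five concentrations against cells in 96-well plates for 48 hours. GI50 marks 50% less growth. TGI is the concentration that stops growth completely.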
Legend:
Experiment in all cases: NCI-60 cell line screen, 48 h
[1] = test system: CCRF-CEM leukemia
[2] = test system: MOLT-4 leukemia
[3] = test system: COLO 205 colon
[4] = test system: NCI-H522 lung
[5] = test system: SK-OV-3 ovarian
[6] = test system: CAKI-1 renal
[7] = test system: NCI-H460 lung
[8] = test system: OVCAR-3 ovarian
[9] = test system: RPMI-8226 leukemia
[10] = test system: MDA-MB-435

SMILES | GI50 [1] | TGI [1] | GI50 [2] | TGI [2] | GI50 [3] | TGI [3] | GI50 [4] | TGI [4] | GI50 [5] | TGI [5] | GI50 [6] | TGI [6] | GI50 [7] | TGI [7] | GI50 [8] | TGI [8] | GI50 [9] | TGI [9] | GI50 [10] | TGI [10]
C[C@H](Nc1ncnc2nc[nH]c12)c1cc2cccc(Cl)c2c(=O)n1-c1ccccc1 | 3000 nM | > 100 µM | 6.53 µM | 51.1 µM | 19.7 µM | > 100 µM | 6930 nM | > 100 µM | 10.8 µM | > 100 µM | 13.5 µM | > 100 µM | 12.6 µM | > 100 µM | 4.19 µM | > 100 µM | 60300 nM | > 100 µM | 19.4 µM | > 100 µM
Cc1ccc2c(ccc3c[n+]4c5ccccc5ccc4n32)c1 | 2460 nM | 10.6 µM | 1.65 µM | 9.65 µM | 0.485 µM | 2.35 µM | 1090 nM | 3.8 µM | 1.76 µM | 6.94 µM | 8.25 µM | > 100 µM | 1.2 µM | 5.41 µM | 0.459 µM | 2.63 µM | 2720 nM | 18.8 µM | 1.13 µM | 2.55 µM
CNC(=O)c1cncc(/C=C/c2ccccc2C)c1 | > 25000 nM | > 25 µM | > 25 µM | > 25 µM | > 25 µM | > 25 µM | > 25000 nM | > 25 µM | > 25 µM | > 25 µM | > 25 µM | > 25 µM | > 25 µM | > 25 µM | > 25 µM | > 25 µM | > 25000 nM | > 25 µM | > 25 µM | > 25 µM
Cc1[c-]onc1C.Cc1[c-]onc1C.[Ag].[Ag].[NH-]S(=O)(=O)c1ccc(N=Nc2cc(N=Nc3ccc(S([NH-])(=O)=O)cc3)c3c(NC(=O)C(Cl)Cl)cccc3c2OC(=O)C(Cl)Cl)cc1 | 9280 nM | 32.7 µM | 8.18 µM | 28.1 µM | 5.15 µM | 30.4 µM | 1750 nM | 14 µM | 9.66 µM | 18.5 µM | 7.12 µM | 14.2 µM | 6.53 µM | 18.1 µM | 7.6 µM | 15.8 µM | 9270 nM | 27.2 µM | 7.87 µM | 16.3 µM
CC(C)(C)C#CC1=C(Br)C(=O)OC1 | 2450 nM | > 27.7 µM | 1.26 µM | 5.03 µM | 31.6 µM | > 100 µM | 7700 nM | 22.5 µM | > 100 µM | > 100 µM | 2.38 µM | 6.95 µM | 3.72 µM | 15.1 µM | 0.935 µM | 4.28 µM | 597 nM | 3.71 µM | 7.44 µM | 24.1 µM
C[C@@H](C(=O)Nc1ccc(Cl)cc1)C1CCC(c2ccnc3ccc(F)cc23)CC1 (some centres not stated) | 3430 nM | > 100 µM | 4.16 µM | > 100 µM | 8.8 µM | 34 µM | 10700 nM | 70.5 µM | 15.3 µM | 73.8 µM | 6.23 µM | > 100 µM | 4.3 µM | 45.5 µM | 11.9 µM | 63.1 µM | 2850 nM | 13.9 µM | 9.08 µM | 54.9 µM
COc1cccc(/C=C/C(=O)c2cccc(Nc3nc(Nc4ccccc4)nc(Nc4ccccc4)n3)c2)c1 | 5260 nM | 45.5 µM | 3.86 µM | 26.3 µM | 10.5 µM | 42.3 µM | 15100 nM | > 100 µM | > 78.5 µM | > 100 µM | > 22.4 µM | > 60.8 µM | 9.01 µM | > 61.8 µM | 9.16 µM | 33.5 µM | 1780 nM | 6.49 µM | 14.5 µM | > 59.7 µM
CN(C)S(=O)(=O)c1ccc(NC(=O)COC(=O)c2ccc(S(=O)(=O)N3CCCCC3)cc2)cc1 | > 100000 nM | > 100 µM | > 100 µM | > 100 µM | > 100 µM | > 100 µM | > 100000 nM | > 100 µM | > 100 µM | > 100 µM | > 100 µM | > 100 µM | > 100 µM | > 100 µM | > 100 µM | > 100 µM | > 100000 nM | > 100 µM | > 100 µM | > 100 µM
COc1c(CCC[P+](c2ccccc2)(c2ccccc2)c2ccccc2)cc2c(c1OC)OCO2 | 1700 nM | > 100 µM | 3.12 µM | 16.3 µM | 1.21 µM | 5.71 µM | 1750 nM | 10.8 µM | 2.56 µM | 8.45 µM | 2.45 µM | 7.35 µM | 1.45 µM | 4.56 µM | 0.629 µM | 18 µM | 233 nM | 1.72 µM | 0.462 µM | 5.03 µM
COc1cc(C2c3cc4c(cc3[C@@H](Nc3ccc(C#N)cc3)C3COC(=O)[C@H]23)OCO4)cc(OC)c1O (some centres not stated) | 147 nM |  | 0.0307 µM |  | 1.98 µM and 1.38 µM | 13 µM and 8.41 µM and 11.5 µM | 1440 nM and 1550 nM | 7.51 µM and 4.48 µM and 7.4 µM | 3.29 µM and 1.34 µM | 48.8 µM and 11.3 µM and > 100 µM | 0.228 µM | 4.37 µM and 2.52 µM | 0.0174 µM and 0.0261 µM |  | 1.81 µM and 2.14 µM | 50 µM and 5.33 µM and 5.32 µM | 869 nM and 1330 nM | 1.42 µM and 3.87 µM and 4.73 µM | 1.98 µM | 50 µM and > 100 µM
CC/C=C\C=C/C(=O)N/C=C/CC1Cc2cccc(O)c2C(=O)O1 (configuration not stated) | 15000 nM | 39.9 µM | 13.4 µM | 42.2 µM | 20.3 µM | 41.2 µM | 19500 nM | 55.2 µM | 46.7 µM | > 100 µM | 17.3 µM | 36.3 µM | 24.3 µM | 62.1 µM | 15.1 µM | 39.7 µM | 22200 nM | 56.4 µM | 3 µM | 10.7 µM
CCN(CC)S(=O)(=O)c1ccc(OC)c(Nc2ncc(-c3ccccc3)o2)c1 | > 19300 nM | > 25 µM | > 18.3 µM | > 25 µM | > 25 µM | > 25 µM | > 16900 nM | > 25 µM | 20.9 µM | > 25 µM | > 25 µM | > 25 µM | > 23.1 µM | > 25 µM | > 19.5 µM | > 25 µM | > 25000 nM | > 25 µM | > 25 µM | > 25 µM
CCN1C(=O)N(CC)C2C1NN=c1s/c(=C\c3cccnc3)c(=O)n12 (configuration not stated) | 410 nM | > 100 µM | 0.596 µM | > 100 µM | 0.392 µM | > 53.3 µM | 474 nM | > 100 µM | 2.02 µM | > 100 µM | 0.346 µM | > 100 µM | 0.4 µM | > 100 µM | 0.359 µM | 8.53 µM | 410 nM | > 100 µM | 0.154 µM | 0.527 µM
COc1ccc2nc3cc([N+](=O)[O-])ccc3c(NCCCCCN(C)C)c2c1 | 295 nM | 3.09 µM | 0.105 µM | 1.04 µM | 0.241 µM | 1.68 µM | 30 nM | 0.0907 µM | 0.351 µM | 2.36 µM | 0.306 µM | 3.04 µM | 0.0815 µM | 1.03 µM | 1.41 µM | 12.1 µM | 74.1 nM | 1.25 µM | 0.271 µM | 0.972 µM
Cc1occc1C(=S)Nc1ccc(Cl)c(COC(C)(C)C)c1 |  | 62.4 µM |  | 47.9 µM |  | 30.6 µM |  | 28.6 µM |  | 34 µM |  | 38.9 µM |  | 31 µM |  | 30 µM |  | 50.5 µM |  | 30.7 µM
COC(=O)[C@]12CC[C@@H](C)[C@H](C)[C@@H]1C1=CC[C@@H]3[C@@]4(C)C[C@@H](OC(C)=O)[C@H](O)[C@@](C)(COC(C)=O)[C@@H]4[C@H](O)C[C@@]3(C)[C@]1(C)CC2 | 2540 nM | 6.34 µM | 1.66 µM | 4.24 µM | 1.63 µM | 3.2 µM | 1940 nM | 4.33 µM | 3.27 µM | 10.3 µM | 2.82 µM | 10.9 µM | 2.05 µM | 4.02 µM | 2.74 µM | 7.24 µM | 2400 nM | 8.06 µM | 2.95 µM | 10.7 µM
CNC(=O)n1ccc2cc(Oc3ccnc(NC(=O)c4ccc(C5CCN(CCO)CC5)cc4)c3)c(OCCOC)cc21 | 2800 nM | > 100 µM | 2.65 µM | 12.7 µM | 2.83 µM | 8.6 µM | 3090 nM | 11 µM | 10.5 µM | 23.1 µM | 3.08 µM | 11.3 µM | 3.22 µM | 10.2 µM | 3.67 µM | 11 µM | 2000 nM | 6.58 µM | 3.2 µM | 11.8 µM
Cc1ccc(S(=O)(=O)N2CCSCCSCCSCCSCC2)cc1 |  | > 100 µM |  | > 100 µM |  | > 100 µM |  | > 69.8 µM |  | 46 µM |  | 66.4 µM |  | > 100 µM |  | 60.7 µM |  | > 100 µM |  | > 100 µM
COC1(C(=O)N[C@@H](C)c2ccc(-n3cc(F)cn3)nc2)CCC(c2nc(C)cc(Nc3cc(C)[nH]n3)n2)CC1 (some centres not stated) | 11000 nM | > 100 µM | 3.48 µM | > 100 µM | 3.83 µM | 23.7 µM | 2260 nM | 16.7 µM | 1.11 µM | 5.07 µM | 0.889 µM | 2.23 µM | 5.2 µM | 18.5 µM | 3.13 µM | 20.6 µM | 7180 nM | 40 µM | 8.27 µM | 21.1 µM

— PubChem BioAssay (NCI)
